Data as given in patent US20230399319A1, “Acylsulfamide Compound and Pharmaceutical Use Therefor” (Japan Tobacco Inc., priority 2019, published 2023).
Read-outs that look alike come from different tables or passages of the source.

Target: NLRP3 inflammasome (Homo sapiens (Human), UniProt Q96P20)
Test: Evaluation of NLRP3 inflammasome inhibitory activity (inhibition of IL-1β production in THP1-Null cells, LPS/Nigericin)
Conditions: for inhibition at 30 µM: read-out: Inhibition at 30 μM
[1] = inhibition of IL-1β production in THP1-Null cells
[2] = IL-1β production in THP1-Null cells, PMA/LPS primed, Nigericin 7.5 μmol/L

Sequence of NLRP3 inflammasome (Q96P20 whole entry): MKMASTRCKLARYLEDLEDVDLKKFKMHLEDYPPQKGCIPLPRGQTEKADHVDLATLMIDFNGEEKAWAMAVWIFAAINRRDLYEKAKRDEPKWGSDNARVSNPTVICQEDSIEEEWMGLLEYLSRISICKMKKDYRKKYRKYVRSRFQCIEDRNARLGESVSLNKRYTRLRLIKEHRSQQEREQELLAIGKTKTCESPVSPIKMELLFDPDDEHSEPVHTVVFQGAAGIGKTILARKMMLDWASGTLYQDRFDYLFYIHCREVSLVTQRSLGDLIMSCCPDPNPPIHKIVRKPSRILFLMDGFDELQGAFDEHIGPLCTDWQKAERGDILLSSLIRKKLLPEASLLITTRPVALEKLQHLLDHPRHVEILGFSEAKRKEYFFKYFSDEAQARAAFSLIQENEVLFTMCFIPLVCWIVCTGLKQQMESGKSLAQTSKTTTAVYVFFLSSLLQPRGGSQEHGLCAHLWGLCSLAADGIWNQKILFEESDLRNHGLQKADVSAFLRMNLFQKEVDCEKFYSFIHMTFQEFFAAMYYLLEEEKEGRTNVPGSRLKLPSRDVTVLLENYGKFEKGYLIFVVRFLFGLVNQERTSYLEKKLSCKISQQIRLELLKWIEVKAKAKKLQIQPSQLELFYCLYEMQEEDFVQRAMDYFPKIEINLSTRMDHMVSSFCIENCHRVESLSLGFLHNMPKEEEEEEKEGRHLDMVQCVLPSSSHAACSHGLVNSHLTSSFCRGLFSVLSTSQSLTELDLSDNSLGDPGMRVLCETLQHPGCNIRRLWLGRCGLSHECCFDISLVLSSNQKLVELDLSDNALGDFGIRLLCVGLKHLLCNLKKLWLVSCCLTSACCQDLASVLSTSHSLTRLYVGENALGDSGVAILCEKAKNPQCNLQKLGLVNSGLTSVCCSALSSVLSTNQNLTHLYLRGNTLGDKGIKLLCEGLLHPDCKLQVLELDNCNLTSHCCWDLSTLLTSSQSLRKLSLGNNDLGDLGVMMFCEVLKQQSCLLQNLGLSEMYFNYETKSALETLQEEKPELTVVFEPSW

Compound	IC50 [2]	other results
COCC1CCN(S(=O)(=O)NC(=O)c2coc(Nc3cc(C(C)C)ccc3C)n2)CCO1 (stereo not shown) [Example 2-295]	–	IC50 [1]: 30 nM
Cc1cnn(C2CCCN(S(=O)(=O)NC(=O)c3coc(Nc4cc(C(F)(F)F)ccc4C)n3)CC2)c1 (stereo not shown) [Example 2-298]	–	IC50 [1]: 67 nM
COCC1CCN(S(=O)(=O)NC(=O)c2coc(Nc3cc(C)ccc3C)n2)CCO1 (stereo not shown) [Example 2-299]	–	IC50 [1]: 190 nM
CCOCC1CCN(S(=O)(=O)NC(=O)c2coc(Nc3cc(C(F)(F)F)ccc3C)n2)CCO1 (stereo not shown) [Example 2-301]	–	IC50 [1]: 11 nM
CCOCC1CCN(S(=O)(=O)NC(=O)c2coc(Nc3cc(C)ccc3C)n2)CCO1 (stereo not shown) [Example 2-305]	–	IC50 [1]: 49 nM
CCCS(=O)(=O)C1CCCN(S(=O)(=O)NC(=O)c2coc(Nc3cc(C(F)(F)F)ccc3C)n2)CC1 (stereo not shown) [Example 2-306]	–	IC50: 9.8 nM
Cc1ccc(C(C)C)c(Nc2nc(C(=O)NS(=O)(=O)N3CCCOCC3)co2)c1 [Example 2-308]	–	IC50 [1]: 82 nM
COCC1CCN(S(=O)(=O)NC(=O)c2coc(Nc3cc(C)ccc3C(C)C)n2)CCO1 (stereo not shown) [Example 2-309]	–	IC50 [1]: 39 nM
Cc1ccc(C(F)(F)F)cc1Nc1nc(C(=O)NS(=O)(=O)N2CCCC(c3ncccn3)[C@@H](C)C2)co1 (stereo partly shown) [Example 2-312]	–	IC50 [1]: 140 nM
CCCN1CCN(S(=O)(=O)NC(=O)c2coc(Nc3cc(C(F)(F)F)ccc3C)n2)CCC1=O [Example 2-320]	–	IC50: 600 nM
Cc1ccc(C)c(Nc2nc(C(=O)NS(=O)(=O)N3CCC[C@H]3CN3CCCC3)co2)c1 [Example 2-321]	–	inhibition at 3 µM (read-out: % inhibition at 3 μM): -11%
Cc1ccc(C(F)(F)F)cc1Nc1nc(C(=O)NS(=O)(=O)N2CCOC(COC(F)F)CC2)co1 (stereo not shown) [Example 2-324]	–	IC50 [1]: 17 nM
CCOCC1CCN(S(=O)(=O)NC(=O)c2coc(Nc3cc(C(C)C)ccc3C)n2)CCO1 (stereo not shown) [Example 2-325]	–	IC50 [1]: 25 nM
Cc1ccc(C(C)C)cc1Nc1nc(C(=O)NS(=O)(=O)N2CCOC(COC(F)F)CC2)co1 (stereo not shown) [Example 2-326]	–	IC50 [1]: 26 nM
COCC1CCN(S(=O)(=O)NC(=O)c2coc(Nc3cc(C(F)F)ccc3C)n2)CCO1 (stereo not shown) [Example 2-327]	–	IC50 [1]: 29 nM
Cc1ccc(C(F)F)cc1Nc1nc(C(=O)NS(=O)(=O)N2CCOC(COC(F)F)CC2)co1 (stereo not shown) [Example 2-328]	–	IC50 [1]: 30 nM
CCOCC1CCN(S(=O)(=O)NC(=O)c2coc(Nc3cc(C(F)F)ccc3C)n2)CCO1 (stereo not shown) [Example 2-332]	–	IC50 [1]: 22 nM
CCOCC1CCN(S(=O)(=O)NC(=O)c2coc(Nc3nn(C(C)C)cc3C)n2)CCO1 (stereo not shown) [Example 2-333]	–	IC50 [1]: 78 nM
CCOCC1CCN(S(=O)(=O)NC(=O)c2coc(Nc3nn(C(C)C)cc3C(C)C)n2)CCO1 (stereo not shown) [Example 2-344]	–	IC50 [1]: 65 nM
COCCOCC1CCN(S(=O)(=O)NC(=O)c2coc(Nc3cc(C)ccc3C)n2)CCO1 (stereo not shown) [Example 2-345]	–	IC50 [1]: 71 nM
O=C(NS(=O)(=O)N1CCOCC1)c1cnc(Nc2c3c(cc4c2CCC4)CCC3)o1 [Example 2]	< 30 nM	–
O=C(NS(=O)(=O)N1CCCCC1)c1cnc(Nc2c3c(cc4c2CCC4)CCC3)o1 [Example 3]	91 nM	–
O=C(NS(=O)(=O)N1CCCOCC1)c1cnc(Nc2c3c(cc4c2CCC4)CCC3)o1 [Example 4]	81 nM	–
O=C(NS(=O)(=O)N1CCCC1)c1cnc(Nc2c3c(cc4c2CCC4)CCC3)o1 [Example 6]	< 30 nM	–

Compound	IC50 [2]	other results
CC(C)NS(=O)(=O)NC(=O)c1cnc(Nc2c3c(cc4c2CCC4)CCC3)o1 [Example 7]	200 nM	–
O=C(NS(=O)(=O)NCc1ccccc1)c1cnc(Nc2c3c(cc4c2CCC4)CCC3)o1 [Example 8]	440 nM	–
O=C(NS(=O)(=O)N1CCOCC12CCC2)c1cnc(Nc2c3c(cc4c2CCC4)CCC3)o1 [Example 9]	210 nM	–
CN(C)S(=O)(=O)NC(=O)c1coc(Nc2c3c(cc4c2CCC4)CCC3)n1 [Example 13]	48 nM	–
CN(C)S(=O)(=O)NC(=O)c1cnc(Nc2c3c(c(Cl)c4c2CCC4)CCC3)o1 [Example 14]	97 nM	–
CC(C)N(C)S(=O)(=O)NC(=O)c1cnc(Nc2c3c(cc4c2CCC4)CCC3)o1 [Example 15]	< 30 nM	–
COC1CN(S(=O)(=O)NC(=O)c2cnc(Nc3c4c(cc5c3CCC5)CCC4)o2)C1 [Example 17]	830 nM	–
Cn1cc(N(C2CCOCC2)S(=O)(=O)NC(=O)c2cnc(Nc3c4c(cc5c3CCC5)CCC4)o2)cn1 [Example 18]	5400 nM	–
CN(C)S(=O)(=O)NC(=O)c1cnc(Nc2cccc3c2CCC3)o1 [Example 19]	5700 nM	–
CC(C)c1cccc(C(C)C)c1Nc1ncc(C(=O)NS(=O)(=O)N(C)C)o1 [Example 20]	–	inhibition at 30 µM: 48%
CC(C)N(C)S(=O)(=O)NC(=O)c1coc(Nc2c3c(cc4c2CCC4)CCC3)n1 [Example 21]	43 nM	–
O=C(NS(=O)(=O)N1CCCC1)c1coc(Nc2c3c(cc4c2CCC4)CCC3)n1 [Example 22]	< 30 nM	–
CN(C)S(=O)(=O)NC(=O)c1cnc(Nc2c3c(c(F)c4c2CCC4)CCC3)o1 [Example 26]	130 nM	–
CN(C)S(=O)(=O)NC(=O)c1coc(Nc2c3c(c(F)c4c2CCC4)CCC3)n1 [Example 27]	58 nM	–
CN(C)S(=O)(=O)NC(=O)c1coc(Nc2c3c(c(Cl)c4c2CCC4)CCC3)n1 [Example 28]	120 nM	–
Cc1ccc2c(c1Nc1nc(C(=O)NS(=O)(=O)N3CCCC3)co1)CCC2 [Example 31]	310 nM	–
Cc1ccc2c(c1Nc1nc(C(=O)NS(=O)(=O)N3CCOCC3)co1)CCC2 [Example 32]	150 nM	–
O=C(NS(=O)(=O)N1CCCC1)c1coc(Nc2c3c(c(Cl)c4c2CCC4)CCC3)n1 [Example 34]	48 nM	–
O=C(NS(=O)(=O)N1CCCC1)c1coc(Nc2c3c(c(F)c4c2CCC4)CCC3)n1 [Example 35]	< 30 nM	–
CO[C@@H]1CCN(S(=O)(=O)NC(=O)c2coc(Nc3c4c(c(Cl)c5c3CCC5)CCC4)n2)C1 [Example 36]	92 nM	–
O=C(NS(=O)(=O)N1CCOCC1)c1coc(Nc2c3c(c(Cl)c4c2CCC4)CCC3)n1 [Example 37]	< 30 nM	–
COCCN(C(C)C)S(=O)(=O)NC(=O)c1coc(Nc2c3c(c(Cl)c4c2CCC4)CCC3)n1 [Example 39]	220 nM	–
O=C(NS(=O)(=O)N1CCS(=O)(=O)CC1)c1coc(Nc2c3c(c(Cl)c4c2CCC4)CCC3)n1 [Example 42]	970 nM	–
CS(=O)(=O)C1CCN(S(=O)(=O)NC(=O)c2coc(Nc3c4c(c(Cl)c5c3CCC5)CCC4)n2)CC1 [Example 43]	< 30 nM	–

Compound	IC50 [2]	other results
C[C@H]1CCCN1S(=O)(=O)NC(=O)c1coc(Nc2c3c(c(Cl)c4c2CCC4)CCC3)n1 [Example 44]	230 nM	–
C[C@@H]1CCCN1S(=O)(=O)NC(=O)c1coc(Nc2c3c(c(Cl)c4c2CCC4)CCC3)n1 [Example 45]	200 nM	–
O=C(NS(=O)(=O)N1CCCn2nccc21)c1coc(Nc2c3c(c(Cl)c4c2CCC4)CCC3)n1 [Example 46]	350 nM	–
O=C(NS(=O)(=O)N1CCC2(COC2)C1)c1coc(Nc2c3c(c(Cl)c4c2CCC4)CCC3)n1 [Example 48]	–	inhibition at 30 µM: 23%
O=C(NS(=O)(=O)N1CCC(F)(F)C1)c1coc(Nc2c3c(c(Cl)c4c2CCC4)CCC3)n1 [Example 49]	270 nM	–
O=C(NS(=O)(=O)N1C2CCC1CC2)c1coc(Nc2c3c(c(Cl)c4c2CCC4)CCC3)n1 [Example 50]	720 nM	–
O=C(NS(=O)(=O)N1CC2CCC(C1)O2)c1coc(Nc2c3c(c(Cl)c4c2CCC4)CCC3)n1 [Example 51]	< 30 nM	–
O=C(NS(=O)(=O)N1CCOCC1)c1coc(Nc2c3c(c(F)c4c2CCC4)CCC3)n1 [Example 53]	< 30 nM	–
CC(=O)N1CCN(S(=O)(=O)NC(=O)c2coc(Nc3c4c(c(Cl)c5c3CCC5)CCC4)n2)CC1 [Example 54]	170 nM	–
CS(=O)(=O)N1CCN(S(=O)(=O)NC(=O)c2coc(Nc3c4c(c(Cl)c5c3CCC5)CCC4)n2)CC1 [Example 55]	160 nM	–
O=C(NS(=O)(=O)N1CCOC2(COC2)C1)c1coc(Nc2c3c(c(Cl)c4c2CCC4)CCC3)n1 [Example 57]	74 nM	–
CS(=O)(=O)C1CCN(S(=O)(=O)NC(=O)c2coc(Nc3c4c(c(F)c5c3CCC5)CCC4)n2)CC1 [Example 58]	39 nM	–
O=C(NS(=O)(=O)N1CC2CCC(C1)O2)c1coc(Nc2c3c(c(F)c4c2CCC4)CCC3)n1 [Example 59]	44 nM	–
O=C(NS(=O)(=O)N1C[C@H]2COC[C@H]2C1)c1coc(Nc2c3c(c(F)c4c2CCC4)CCC3)n1 [Example 60]	130 nM	–
O=C(NS(=O)(=O)N1C[C@H]2COC[C@H]2C1)c1coc(Nc2c3c(c(Cl)c4c2CCC4)CCC3)n1 [Example 61]	170 nM	–
CC(=O)NC1CCN(S(=O)(=O)NC(=O)c2coc(Nc3c4c(c(F)c5c3CCC5)CCC4)n2)CC1 [Example 62]	270 nM	–
CN(C)C(=O)C1CCN(S(=O)(=O)NC(=O)c2coc(Nc3c4c(c(F)c5c3CCC5)CCC4)n2)CC1 [Example 63]	900 nM	–
CN1CCN(S(=O)(=O)NC(=O)c2coc(Nc3c4c(c(F)c5c3CCC5)CCC4)n2)CC1=O [Example 64]	5700 nM	–
O=C1CCN(S(=O)(=O)NC(=O)c2coc(Nc3c4c(c(Cl)c5c3CCC5)CCC4)n2)C1 [Example 65]	63 nM	–
CN(C)S(=O)(=O)C1CCN(S(=O)(=O)NC(=O)c2coc(Nc3c4c(c(F)c5c3CCC5)CCC4)n2)CC1 [Example 66]	< 30 nM	–
CCOC(=O)c1c2c(nn1C)CN(S(=O)(=O)NC(=O)c1coc(Nc3c4c(c(F)c5c3CCC5)CCC4)n1)C2 [Example 67]	840 nM	–
Cc1ccc2c(c1Nc1nc(C(=O)NS(=O)(=O)N(C)C)co1)CCC2 [Example 69]	150 nM	–

Continued, in another order:

IC50 [2]	Compound	other results
21 nM	Cc1cc(Nc2nc(C(=O)NS(=O)(=O)N3CCOC(COC(C)C)CC3)co2)c(C)cc1F (stereo not shown) [Example 3-003]	–
26 nM	Cc1cc(Nc2nc(C(=O)NS(=O)(=O)N3CCOC(CS(=O)(=O)C(C)C)CC3)co2)c(C)cc1F (stereo not shown) [Example 3-004]	–
40 nM	COCCOC[C@@H]1CCN(S(=O)(=O)NC(=O)c2coc(Nc3cc(C)c(F)cc3C)n2)CCO1 [Example 3-005, (S)-2-((4-fluoro-2,5-dimethylphenyl)amino)-N-((7-((2-methoxyethoxy)methyl)-1,4-oxazepan-4-yl)sulfonyl)oxazole-4-carboxamide]	–
